Laboratory results published in patent publication US20060270634A1, “Acetal phosphate-derived LPA mimics, PPARgamma activators, and autotaxin inhibitors” (priority 2005, published 2006).
Entries after “also recorded” stand apart in the source; their conditions may differ. Like-named read-outs stand apart in the source and are kept apart here.

How the values were obtained:
LPA1 = LPA1 (Homo sapiens, UniProt Q92633); assay: Ca2+ transients in RH7777 cells expressing LPA1 (agonist / inhibition of LPA response); settings: for LPA1 effect in words: Tables 2, 4, 6; for Emax: RH7777, read-out: LPA1 (Emax)
Procedure: (§1) The biological effects of all synthesized compounds were testing using three high-throughput assays. First, intracellular calcium transients in rat hepatoma (RH777, an LPA receptor null cell) cell lines individually expressing either LPA1, LPA2, and LPA3 receptors were analyzed to evaluate compounds as agonists or antagonists.
(§2) Synthesized compounds were tested for induction and inhibition of LPA-induced calcium transients in rat hepatoma (RH7777) cell lines that stably express individual LPA1, LPA2, and LPA3 receptors as described in the literature using a FlexStation II automated fluorimeter (Molecular Devices, Sunnyvale, Calif.).
(§3) RH7777 cells, which lack LPA GPCR, were stably transfected with individual LPA1, LPA2 and LPA3 receptors and used for the in vitro screening.

LPA3 = target: T1, LPA3 (Homo sapiens, UniProt Q9UBY5); assay: Ca2+ transients in RH7777 cells expressing LPA3 (agonist / inhibition of LPA response); settings: for LPA3 effect in words: Tables 2, 4, 6
T1 sequence (Q9UBY5 1-353): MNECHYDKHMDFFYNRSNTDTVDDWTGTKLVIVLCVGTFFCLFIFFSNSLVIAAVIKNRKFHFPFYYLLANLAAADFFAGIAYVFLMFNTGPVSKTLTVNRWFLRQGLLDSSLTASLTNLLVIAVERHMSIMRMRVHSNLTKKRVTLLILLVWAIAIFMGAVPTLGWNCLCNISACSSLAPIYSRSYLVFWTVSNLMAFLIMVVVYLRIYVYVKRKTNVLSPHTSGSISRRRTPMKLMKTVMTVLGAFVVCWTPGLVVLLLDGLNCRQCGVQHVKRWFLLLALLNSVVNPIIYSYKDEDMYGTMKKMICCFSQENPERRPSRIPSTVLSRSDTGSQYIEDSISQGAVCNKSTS
Procedure: as §1, §2, §3

LPA2 = LPA2 (Homo sapiens, UniProt Q9HBW0); assay: Ca2+ transients in RH7777 cells expressing LPA2 (agonist / inhibition of LPA response); settings: for Emax: RH7777, read-out: LPA2 (Emax)
Procedure: as §1, §2, §3

[1] = read-out: LPA1 IC50, 200 nM LPA
[2] = read-out: LPA1 EC50, Table 5, PA 8:0 analogs

LPA2, sequence (Q9HBW0 whole entry, species assumed): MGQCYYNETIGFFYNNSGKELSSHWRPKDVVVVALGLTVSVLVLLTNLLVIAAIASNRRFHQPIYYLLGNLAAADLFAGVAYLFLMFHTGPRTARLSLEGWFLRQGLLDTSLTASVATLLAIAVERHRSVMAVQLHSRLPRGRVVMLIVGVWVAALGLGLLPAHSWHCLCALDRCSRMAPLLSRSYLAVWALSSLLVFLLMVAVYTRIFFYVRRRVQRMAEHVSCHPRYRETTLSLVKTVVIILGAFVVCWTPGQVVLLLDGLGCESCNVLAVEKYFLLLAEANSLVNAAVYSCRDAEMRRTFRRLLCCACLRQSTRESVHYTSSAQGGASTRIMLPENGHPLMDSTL
LPA1, sequence (Q92633 whole entry, species assumed): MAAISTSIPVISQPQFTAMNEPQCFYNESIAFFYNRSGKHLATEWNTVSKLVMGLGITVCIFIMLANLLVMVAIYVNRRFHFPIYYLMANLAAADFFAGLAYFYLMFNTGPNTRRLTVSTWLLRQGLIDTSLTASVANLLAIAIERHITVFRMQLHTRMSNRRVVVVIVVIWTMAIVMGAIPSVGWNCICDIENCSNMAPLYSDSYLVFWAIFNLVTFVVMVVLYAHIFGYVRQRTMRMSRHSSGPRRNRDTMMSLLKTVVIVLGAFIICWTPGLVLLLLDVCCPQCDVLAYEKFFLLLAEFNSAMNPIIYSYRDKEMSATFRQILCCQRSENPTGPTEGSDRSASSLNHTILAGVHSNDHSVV

CCCCCCCCc1ccc(CCCCCCC2OCC(COP(=O)(O)O)O2)cc1 (stereo not shown) [ID 14]
IC50 (LPA1; [1]): 4660 nM
LPA3 effect in words (LPA3): Partial agonist

CCCCCCCCc1ccc(CCCCCCCOP(O)(O)=S)cc1
EC50 (LPA1; LPA1 EC50): 4830 nM
LPA1 effect in words (LPA1): Partial agonist
EC50 (LPA3): 0.858 µM
LPA3 effect in words (LPA3): Partial agonist
EC50 (LPA2; LPA2 EC50, Table 4): 6060 nM
LPA2 effect in words (LPA2; Table 4): full agonist

CCCCCCCCOC[C@H](COP(=O)(O)O)OCCCCCCCC [Cpd 12b, (2R)-APA 8:0]
LPA1 agonist/antagonist activity in words (LPA1): agonists; also recorded: Enantiospecific activation
Emax (LPA1): 57%
LPA1 effect in words (LPA1): Partial agonist
EC50 (LPA1; read-out: LPA1 EC50): 3260 nM
EC50 (LPA1; [2]): 3260 nM
LPA3 agonist/antagonist activity in words (LPA3): agonists; also recorded: Enantiospecific activation
Emax (LPA3; RH7777, read-out: LPA3 (Emax)): 109%
LPA3 effect in words (LPA3): Full agonist
EC50 (LPA3; read-out: LPA3 EC50): 0.164 µM
EC50 (LPA3; read-out: LPA3 EC50, Table 5): 0.164 µM
LPA2 effect in words (LPA2; *transient): Partial agonist
EC50 (LPA2; LPA2 EC50, *transient): 2530 nM

CCCCCCCCc1ccc(CCCCCCC2OCC(COP(O)(O)=S)O2)cc1 (stereo not shown) [ID 15]
LPA1 effect in words (LPA1): Weak antagonist

CCCCCCCCCCCCC1OCC(COP(=O)(O)O)O1 (stereo not shown) [Analog 4]
EC50 (LPA1): > 30000 nM
IC50 (LPA1; LPA1 (nM) IC50, Table 1): 1110 nM
IC50 (LPA1; LPA1 IC50, text): 1100 nM
EC50 (LPA3): > 30 µM
IC50 (LPA3): 2.87 µM
EC50 (LPA2; LPA2 EC50, text): 1180 nM

CCCCCCCC/C=C\CCCCCCC[C@@H]1OC[C@@H](COP(O)(O)=S)O1 [Analog 28]
IC50 (LPA2): > 30000 nM
EC50 (LPA2; LPA2 (nM) EC50, Table 1): 1710 nM

CCCCCCCCNC(=O)[C@H](COP(O)(O)=S)NC(=O)CCCCCCC [Cpd 20a]
Ki (LPA1; read-out: LPA1 (Ki), Table 5): 0.152 µM
IC50 (LPA1; read-out: LPA1 IC50, Table 5): 476 nM
Ki (LPA3; read-out: LPA3 (Ki), Table 5): 0.117 µM
IC50 (LPA3; read-out: LPA3 IC50, Table 5): 0.251 µM

CCCCCCCCOC[C@H](COP(O)(O)=S)OCCCCCCCC [Cpd 13b, 2(R)-ATPA 8:0]
LPA1 agonist/antagonist activity in words (LPA1): agonists; also recorded: Enantiospecific activation
Emax (LPA1): 30%
LPA1 effect in words (LPA1): Partial agonist
EC50 (LPA1; read-out: LPA1 EC50): 695 nM
EC50 (LPA1; [2]): 695 nM
LPA3 agonist/antagonist activity in words (LPA3): agonists; also recorded: potent LPA3 receptor subtype-selective agonist; also recorded: full agonist
selectivity for LPA3 over LPA1 (LPA3): ~230 fold
selectivity for LPA3 over LPA2 (LPA3): ~1900 fold
Emax (LPA3; RH7777, read-out: LPA3 (Emax)): 109%
Emax (LPA3; RH7777, read-out: LPA3 Emax): 109%
LPA3 effect in words (LPA3): Full agonist
EC50 (LPA3; read-out: LPA3 EC50): 0.003 µM
EC50 (LPA3; read-out: LPA3 EC50, Table 5): 0.003 µM
EC50 (LPA3; read-out: LPA3 EC50, text): 0.003 µM
LPA2 agonist/antagonist activity in words (LPA2): weak and partial agonist
LPA2 effect in words (LPA2; *transient): Partial agonist
EC50 (LPA2; LPA2 EC50, *transient): 1020 nM
Emax (LPA2): 27%

CCCCCCCC/C=C\CCCCCCC[C@@H]1OC[C@H](COP(=O)(O)O)O1 [Analog 21]
EC50 (LPA3): > 30 µM
IC50 (LPA3): 0.484 µM
EC50 (LPA2; LPA2 (nM) EC50, Table 1): > 10000 nM
IC50 (LPA2; LPA2 (nM) IC50, Table 1): > 30000 nM

CCCCCCCC(=O)OC[C@H](COP(O)(O)=S)OC(=O)CCCCCCC [Cpd 8b, (2R)-TPA 8:0]
LPA1 agonist/antagonist activity in words (LPA1): more potent antagonist
Ki (LPA1; read-out: LPA1 (Ki), Table 5): 0.36 µM
IC50 (LPA1; read-out: LPA1 IC50, Table 5): 686 nM
selectivity for LPA3 over LPA1 (LPA3): 75 fold
IC50 (LPA3; read-out: LPA3 IC50, Table 5): 0.011 µM
Ki (LPA3; read-out: LPA3 Ki): 0.005 µM
LPA2 agonist/antagonist activity in words (LPA2): partial agonist
Emax (LPA2): 58%
EC50 (LPA2; read-out: LPA2 EC50, Table 5): 6330 nM

CCCCCCCCc1ccc(CCCCCCCOP(=O)(O)O)cc1
EC50 (LPA1): 21500 nM
LPA1 effect in words (LPA1): Partial agonist
IC50 (LPA3): 1.76 µM
LPA2 effect in words (LPA2; Table 4): Weak antagonist

CCCCCCCC(=O)OCC(COP(=O)(O)O)OC(=O)CCCCCCC (stereo not shown) [Cpd 2, phosphatidic acid 8:0, reference compound]
Ki (LPA1): 0.407 µM
IC50 (LPA1; LPA1 IC50, Table 5): 692 nM

CCCCCCCC(=O)OC[C@@H](COP(=O)(O)O)OC(=O)CCCCCCC [Cpd 7a, (2S)-PA 8:0]
LPA1 agonist/antagonist activity in words (LPA1): subtype selective antagonism
Ki (LPA1; read-out: LPA1 (Ki), Table 5): 0.221 µM
IC50 (LPA1; read-out: LPA1 IC50, Table 5): 433 nM
LPA3 agonist/antagonist activity in words (LPA3): subtype selective antagonism
LPA2 agonist/antagonist activity in words (LPA2): no effect

CCCCCCCC/C=C\CCCCCCC[C@H]1OC[C@H](COP(O)(O)=S)O1 [Analog 24]
IC50 (LPA2): > 30000 nM
EC50 (LPA2; LPA2 (nM) EC50, Table 1): 1320 nM

CCCCCCCC/C=C\CCCCCCC[C@H]1OC[C@H](COP(=O)(O)O)O1 [Analog 23]
EC50 (LPA2; LPA2 (nM) EC50, Table 1): > 30000 nM
IC50 (LPA2; LPA2 (nM) IC50, Table 1): > 30000 nM

CCCCCCCC(=O)OC[C@@H](COP(O)(O)=S)OC(=O)CCCCCCC [Cpd 8a, thiophosphatidic acid 8:0]
LPA1 agonist/antagonist activity in words (LPA1): lacked LPA1/3 antagonism
LPA3 agonist/antagonist activity in words (LPA3): partial agonist
Emax (LPA3; RH7777, read-out: LPA3 (Emax)): 30%
EC50 (LPA3; read-out: LPA3 EC50, Table 5): 0.115 µM
LPA2 agonist/antagonist activity in words (LPA2): partial agonist
Emax (LPA2): 17%
EC50 (LPA2; read-out: LPA2 EC50, Table 5): 7170 nM

CCCCCCCCc1ccc(CCCCCCC2OCC(COP(=O)(O)O)O2)cc1 (stereo not shown) [Analog 14]
IC50 (LPA1): 4660 nM
EC50 (LPA1; LPA1 (nM) EC50, Table 1): > 30000 nM
EC50 (LPA3): 0.692 µM
IC50 (LPA3): > 30 µM
IC50 (LPA2): > 30000 nM
EC50 (LPA2; LPA2 (nM) EC50, Table 1): > 30000 nM

CCCCCCCCc1ccc(CCCCCCC2OCC(COP([O-])(O)=S)O2)cc1.[K+] (stereo not shown) [Analog 15]
LPA1 agonist/antagonist activity in words (LPA1): no effect
EC50 (LPA1; LPA1 (nM) EC50, Table 1): > 30000 nM
EC50 (LPA3): > 30 µM
IC50 (LPA3): 0.504 µM
LPA3 agonist/antagonist activity in words (LPA3): sub-type selective LPA3 antagonist
IC50 (LPA2): > 30000 nM
LPA2 agonist/antagonist activity in words (LPA2): no effect
EC50 (LPA2; LPA2 (nM) EC50, Table 1): > 30000 nM

CCCCCCCC/C=C\CCCCCCCC1OCC(COP(=O)([O-])O)O1.[K+] (stereo not shown) [Analog 5]
EC50 (LPA3): > 30 µM
IC50 (LPA3): 0.527 µM
LPA3 agonist/antagonist activity in words (LPA3): LPA1/3 antagonist
LPA2 agonist/antagonist activity in words (LPA2): full LPA2 agonist
EC50 (LPA2; LPA2 (nM) EC50, Table 1): 68 nM

CCCCCCCCOC[C@@H](COP(=O)(O)O)OCCCCCCCC [Cpd 12a]
Ki (LPA1; read-out: LPA1 (Ki), Table 5): 0.486 µM
IC50 (LPA1; [1]): 1580 nM
IC50 (LPA1; read-out: LPA1 IC50, Table 5): 1580 nM
Ki (LPA3; read-out: LPA3 (Ki), Table 5): 0.05 µM
IC50 (LPA3; read-out: LPA3 IC50, 200 nM LPA): 0.143 µM
IC50 (LPA3; read-out: LPA3 IC50, Table 5): 0.143 µM
LPA2 effect in words (LPA2; *transient): Weak inhibition(?) *transient

CCCCCCCCNC(=O)[C@@H](COP(O)(O)=S)NC(=O)CCCCCCC [Cpd 20b]
Ki (LPA1; read-out: LPA1 (Ki), Table 5): 2.85 µM
IC50 (LPA1; read-out: LPA1 IC50, Table 5): 7390 nM
Ki (LPA3; read-out: LPA3 (Ki), Table 5): 0.118 µM
IC50 (LPA3; read-out: LPA3 IC50, Table 5): 0.302 µM

CCCCCCCC/C=C\CCCCCCC[C@@H]1OC[C@H](COP(O)(O)=S)O1 [Analog 22]
EC50 (LPA3): 0.204 µM
IC50 (LPA3): > 30 µM
IC50 (LPA2): > 30000 nM
EC50 (LPA2; LPA2 (nM) EC50, Table 1): 1540 nM

CCCCCCCC/C=C\CCCCCCCC1OCC(COP([O-])(O)=S)O1.[K+] (stereo not shown) [Analog 6]
IC50 (LPA1): > 30000 nM
LPA1 agonist/antagonist activity in words (LPA1): pan-agonists
EC50 (LPA1; LPA1 (nM) EC50, Table 1): 981 nM
EC50 (LPA3): 0.639 µM
IC50 (LPA3): > 30 µM
LPA3 agonist/antagonist activity in words (LPA3): pan-agonists
LPA2 agonist/antagonist activity in words (LPA2): pan-agonists
EC50 (LPA2; LPA2 (nM) EC50, Table 1): 34 nM

CCCCCCCC/C=C\CCCCCCCC(=O)OC[C@@H](O)COP(=O)(O)O [Oleoyl-LPA, reference compound]
LPA1 agonist/antagonist activity in words (LPA1): agonist of LPA1-3
LPA3 agonist/antagonist activity in words (LPA3): agonist of LPA1-3
LPA2 agonist/antagonist activity in words (LPA2): agonist of LPA1-3

CCCCCCCC/C=C\CCCCCCC[C@H]1OC[C@@H](COP(=O)(O)O)O1 [Analog 25]
EC50 (LPA2; LPA2 (nM) EC50, Table 1): 1170 nM
IC50 (LPA2; LPA2 (nM) IC50, Table 1): > 30000 nM
